In patent publication US11040028B2, “Penicinotam derivative, preparation method and use thereof” (OCEAN UNIVERSITY OF CHINA, priority 2017, dated 2021) one finds IC50 data, which are given here for 16 compounds.

Format in all cases: cell-based
In assay [1] the test system is mouse macrophages (RAW264.7). Nature of the assay: Lipopolysaccharide-induced NO secretion in macrophages (Griess). To be noted: Mus musculus, RAW264.7, 24 h, RAW264.7, LPS 1 μg/ml, a/b isomers given as first/second symbol, read-out: IC50 (μM), inhibition of lipopolysaccharide-induced NO secretion in macrophages. The method, boiled down: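 RAW264.7 macrophages in DMEM with 10% FBS received test samples at several concentrations and were stimulated with 1 μg/ml LPS for 24 h. NO in the supernatant was measured with the Griess reagent at 548 nm, […].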
For orientation: Griess reagent forms a coloured azo dye with nitrite.

Assay [2] relates to cardiac fibroblast RAT-iCell-C002. Nature of the assay: Anti-fibrosis activity test: inhibition of proliferation of cardiac fibroblast RAT-iCell-C002 (CCK-8). To be noted: Cardiac fibroblast, 48 h, cardiac fibroblast RAT-iCell-C002, CCK-8, 48 hours. The method, boiled down:
(§1)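 Cells seeded at 2×10^4 cells/mL, adhered 24 h, then exposed to compound concentrations in triplicate for 48 h at 37° C, 5% CO2. CCK-8 added for 2 h, absorbance at 450 nm; inhibition = (1−Ai/Ao)×100% versus blank control, IC50 calculated.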

For assay [3], the system named is human dermal fibroblasts CCC-ESF-1. Nature of the assay: Anti-fibrosis activity test: inhibition of proliferation of human dermal fibroblasts CCC-ESF-1 (CCK-8). To be noted: Fibroblast; human dermal fibroblasts CCC-ESF-1, CCK-8, 48 hours. The method, boiled down:
as §1

The subject of assay [4] is human fibrosarcoma cells HT-1080. Nature of the assay: Anti-fibrosis activity test: inhibition of proliferation of human fibrosarcoma cells HT-1080 (CCK-8). To be noted: Homo sapiens, HT-1080, 48 h, human fibrosarcoma cells HT-1080, CCK-8, 48 hours. The method, boiled down:
as §1

For assay [5], the system named is human lung fibroblasts HFL1. Description: Anti-fibrosis activity test: inhibition of proliferation of human lung fibroblasts HFL1 (CCK-8). To be noted: Homo sapiens, HFL1, 48 h, human lung fibroblasts HFL1, CCK-8, 48 hours. In outline:
as §1

The subject of assay [6] is human hepatic stellate cells LX-2. Nature of the assay: Anti-fibrosis activity test: inhibition of proliferation of human hepatic stellate cells LX-2 (CCK-8). To be noted: Homo sapiens, 48 h, human hepatic stellate cells LX-2, CCK-8, 48 hours. The method, boiled down:
as §1

For the next assay, the system named is BHK-21 cells. Nature of the assay: Anti-fibrosis activity test: inhibition of BHK-21 cell proliferation (CCK-8). As to conditions: Mesocricetus auratus, BHK-21, 48 h, CCK-8, 48 hours after administration. In outline:
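Proliferation inhibition was read as CCK-8 absorbance at 450 nm (2-hour development) relative to untreated blank, with IC50 fitted from the curve. Before that, adhered cells (2×10^4 cells/mL, 24 hours) had 48 hours' treatment at several concentrations, in triplicate, at 37° C/5% CO2; pirfenidone was the reference.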

In assay [7] the test system is human embryonic lung fibroblast IMR-90. Description: Anti-fibrosis activity test: inhibition of proliferation of human embryonic lung fibroblast IMR-90 (CCK-8). As to conditions: human embryonic lung fibroblast IMR-90, CCK-8, 48 hours. The method, boiled down: as §1

In general, IC50 refers to the concentration that inhibits the measured activity by half. On to `CC(C)=CCOc1c2c(nc3cc(N4CCNCC4)c(F)cc13)-c1cccn1C2=O` [Compound 354b, 7-fluoro-9-((3-methylbut-2-en-1-yl)oxy)-6-(piperazin-1-yl)-10H-pyrrolizino[1,2-b]quinolin-10-one], for which the IC50 in assay [1] was 1 to 10 µM; in assay [2], 0.05 to 5 mM; in assay [3] it was 0.05 to 5 mM; in assay [4], 0.05 to 5 mM; in assay [5], 0.05 to 5 mM; in assay [6], 5 to 20 mM. Further, the IC50 (with BHK-21 cells; in assay [7]) was 0.05 to 5 mM throughout.
Regarding `Cn1c2c(c(=O)c3cc(F)c(N4CCNCC4)cc31)C(=O)n1cccc1-2` [Compound 361a, 7-Fluoro-4-methyl-6-(piperazin-1-yl)-9H-pyrrolizino[1,2-b]quinoline-9,10(4H)-dione], the IC50 in assay [1] is 1 to 10 µM; in assay [2] it was 0.05 to 5 mM; in assay [3], 0.05 to 5 mM; in assay [4], < 0.05 mM; in assay [5], 0.05 to 5 mM; in assay [6], 0.05 to 5 mM. In addition, the half-maximal inhibitory concentration (IC50) (in the assay with BHK-21 cells; in assay [7]) was 0.05 to 5 mM throughout.
In the case of `COc1c2c(nc3cc(N4CCNCC4)c(F)cc13)-c1cccn1C2=O` [Compound 361b, 7-fluoro-9-methoxy-6-(piperazin-1-yl)-10H-pyrrolizino[1,2-b]quinolin-10-one], the half-maximal inhibitory concentration (IC50) in assay [1] was 1 to 10 µM; in assay [2] it was 0.05 to 5 mM; in assay [3], 0.05 to 5 mM; in assay [4], 0.05 to 5 mM; in assay [5], 0.05 to 5 mM; in assay [6] it was 5 to 20 mM. For the same compound, the IC50 (in the assay on BHK-21 cells; in assay [7]) was 0.05 to 5 mM throughout.
On to `O=C1c2c([nH]c3cc(N4CCNCC4)c(Cl)cc3c2=O)-c2cccn21` [Compound 373a, 7-Chloro-6-(piperazin-1-yl)-9H-pyrrolizino[1,2-b]quinoline-9,10(4H)-dione], for which the IC50 in assay [1] lay in the range of 0.1 to 1 µM; in assay [2], 0.05 to 5 mM; in assay [3], 0.05 to 5 mM; in assay [4], 0.05 to 5 mM; in assay [5], 0.05 to 5 mM; in assay [6] it was 0.05 to 5 mM. Moreover, the half-inhibitory concentration (IC50) (in the assay on BHK-21 cells; in assay [7]) was 0.05 to 5 mM each time.
Regarding `O=C1c2c(nc3cc(N4CCNCC4)c(Cl)cc3c2O)-c2cccn21` [Compound 373b, 7-chloro-9-hydroxy-6-(piperazin-1-yl)-10H-pyrrolizino[1,2-b]quinolin-10-one], the IC50 fell in the range of 1 to 10 µM in assay [1]; 0.05 to 5 mM in assay [2]; 0.05 to 5 mM in assay [3]; 0.05 to 5 mM in assay [4]; 0.05 to 5 mM in assay [5]; 0.05 to 5 mM in assay [6]. The IC50 (in the assay with BHK-21 cells; in assay [7]) was 0.05 to 5 mM throughout.
On to `O=C1c2c([nH]c3cc(N4CCNCC4)c(C(F)(F)F)cc3c2=O)-c2cccn21` [Compound 397a, 6-(Piperazin-1-yl)-7-(trifluoromethyl)-9H-pyrrolizino[1,2-b]quinoline-9,10(4H)-dione], for which the IC50 in assay [1] was 0.1 to 1 µM; in assay [2] it was 0.05 to 5 mM; in assay [3], 0.05 to 5 mM; in assay [4] it was 0.05 to 5 mM; in assay [5], 0.05 to 5 mM; in assay [6], 0.05 to 5 mM. The IC50 (in the assay on BHK-21 cells; in assay [7]) was 0.05 to 5 mM throughout.
`O=C1c2c(nc3cc(N4CCNCC4)c(C(F)(F)F)cc3c2O)-c2cccn21` [Compound 397b, 9-hydroxy-6-(piperazin-1-yl)-7-(trifluoromethyl)-10H-pyrrolizino[1,2-b]quinolin-10-one]: the half-maximal inhibitory concentration (IC50) lay within 0.1 to 1 µM in assay [1]; 0.05 to 5 mM in assay [2]; 0.05 to 5 mM in assay [3]; 0.05 to 5 mM in assay [4]; 0.05 to 5 mM in assay [5]; 0.05 to 5 mM in assay [6]. Moreover, the IC50 (in the assay with BHK-21 cells; in assay [7]) was 0.05 to 5 mM in each case.
Take `O=C1c2c([nH]c3cc(N4CCNCC4)c(OC(F)(F)F)cc3c2=O)-c2cccn21` [Compound 409a, 6-(Piperazin-1-yl)-7-(trifluoromethoxy)-9H-pyrrolizino[1,2-b]quinoline-9,10(4H)-dione]: the IC50 lay in the range of 1 to 10 µM in assay [1]; 0.05 to 5 mM in assay [2]; 0.05 to 5 mM in assay [3]; 0.05 to 5 mM in assay [4]; 0.05 to 5 mM in assay [5]; 0.05 to 5 mM in assay [6]. Moreover, the IC50 (in the assay on BHK-21 cells; in assay [7]) was 0.05 to 5 mM each time.
For `O=C1c2c(nc3cc(N4CCNCC4)c(OC(F)(F)F)cc3c2O)-c2cccn21` [Compound 409b, 9-hydroxy-6-(piperazin-1-yl)-7-(trifluoromethoxy)-10H-pyrrolizino[1,2-b]quinolin-10-one], the IC50 in assay [1] lay within 1 to 10 µM; in assay [2], 0.05 to 5 mM; in assay [3], 0.05 to 5 mM; in assay [4] it was 0.05 to 5 mM; in assay [5], 0.05 to 5 mM; in assay [6], 0.05 to 5 mM. Besides, the half-maximal inhibitory concentration (IC50) (in the assay on BHK-21 cells; in assay [7]) was 0.05 to 5 mM in each case.
As to `N#Cc1cccc2c(=O)c3c(n(Cc4ccc(F)cc4)c12)-c1cccn1C3=O` [Compound 449a, 4-(4-Fluorobenzyl)-9,10-dioxo-4,10-dihydro-9H-pyrrolizino[1,2-b]quinoline-5-carbonitrile], the IC50 in assay [1] was 1 to 10 µM; in assay [2], 0.05 to 5 mM; in assay [3] it was 0.05 to 5 mM; in assay [4], 0.05 to 5 mM; in assay [5] it was 0.05 to 5 mM; in assay [6], 0.05 to 5 mM. For the same compound, the IC50 (in the assay with BHK-21 cells; in assay [7]) was 0.05 to 5 mM throughout.
With `N#Cc1cccc2c(OCc3ccc(F)cc3)c3c(nc12)-c1cccn1C3=O` [Compound 449b, 9-((4-fluorobenzyl)oxy)-10-oxo-10H-pyrrolizino[1,2-b]quinoline-5-carbonitrile], the IC50 in assay [1] fell in the range of 1 to 10 µM; in assay [2], 0.05 to 5 mM; in assay [3] it was 0.05 to 5 mM; in assay [4], 0.05 to 5 mM; in assay [5], 0.05 to 5 mM; in assay [6] it was 0.05 to 5 mM. Besides, the IC50 (in the assay with BHK-21 cells; in assay [7]) was 0.05 to 5 mM in each case.
For the compound `O=C1c2c(n(Cc3ccc(Cl)cc3)c3c(C(F)(F)F)cccc3c2=O)-c2cccn21` [Compound 450a, 4-(4-Chlorobenzyl)-5-(trifluoromethyl)-9H-pyrrolizino[1,2-b]quinoline-9,10(4H)-dione], the concentration for half-maximal inhibition (IC50) lay within 1 to 10 µM in assay [1]; 0.05 to 5 mM in assay [2]; 0.05 to 5 mM in assay [3]; 5 to 20 mM in assay [4]; 0.05 to 5 mM in assay [5]; 0.05 to 5 mM in assay [6]. The 50% inhibitory concentration (IC50) (with BHK-21 cells; in assay [7]) was 0.05 to 5 mM each time.
Turning to `O=C1c2c(nc3c(C(F)(F)F)cccc3c2OCc2ccc(Cl)cc2)-c2cccn21` [Compound 450b, 9-((4-chlorobenzyl)oxy)-5-(trifluoromethyl)-10H-pyrrolizino[1,2-b]quinolin-10-one], the IC50 in assay [1] lay in the range of 1 to 10 µM; in assay [2], 0.05 to 5 mM; in assay [3] it was 0.05 to 5 mM; in assay [4], 5 to 20 mM; in assay [5], 0.05 to 5 mM; in assay [6], 0.05 to 5 mM. Further, the IC50 (with BHK-21 cells; in assay [7]) was 0.05 to 5 mM throughout.
On to `O=C1c2c(n(Cc3ccc(Cl)cc3)c3c(Cl)cccc3c2=O)-c2cccn21` [Compound 451a, 5-Chloro-4-(4-chlorobenzyl)-9H-pyrrolizino[1,2-b]quinoline-9,10(4H)-dione], for which the IC50 is 1 to 10 µM in assay [1]; 0.05 to 5 mM in assay [2]; 0.05 to 5 mM in assay [3]; 0.05 to 5 mM in assay [4]; < 0.05 mM in assay [5]; 0.05 to 5 mM in assay [6]. Further, the half-maximal inhibitory concentration (IC50) (with BHK-21 cells; in assay [7]) was 0.05 to 5 mM throughout.
For the compound `O=C1c2c(nc3c(Cl)cccc3c2OCc2ccc(Cl)cc2)-c2cccn21` [Compound 451b, 5-chloro-9-((4-chlorobenzyl)oxy)-10H-pyrrolizino[1,2-b]quinolin-10-one], the IC50 in assay [1] was 1 to 10 µM; in assay [2], 0.05 to 5 mM; in assay [3] it was 0.05 to 5 mM; in assay [4], 0.05 to 5 mM; in assay [5], < 0.05 mM; in assay [6], 0.05 to 5 mM. The IC50 (in the assay with BHK-21 cells; in assay [7]) was 0.05 to 5 mM in each case.
For the compound `O=C1c2c(n(Cc3ccc(F)cc3)c3c(F)cccc3c2=O)-c2cccn21` [Compound 452a, 5-Fluoro-4-(4-fluorobenzyl)-9H-pyrrolizino[1,2-b]quinoline-9,10(4H)-dione], the IC50 is 1 to 10 µM in assay [1]; 0.05 to 5 mM in assay [2]; 0.05 to 5 mM in assay [3]; 0.05 to 5 mM in assay [4]; 0.05 to 5 mM in assay [5]; < 0.05 mM in assay [6]. Moreover, the half-inhibitory concentration (IC50) (with BHK-21 cells; in assay [7]) was 0.05 to 5 mM each time.
